The term IC50 denotes the midpoint of a concentration-inhibition curve. A word on the EC50: it is the concentration at which the effect is half-maximal. For orientation: AC50 means the concentration giving half of the maximal activity seen.

Structures are written as SMILES. Active and inactive are the calls of the source.

Here are results for 3 compounds from ChEMBL document CHEMBL1201862, “PubChem BioAssay data set” (2004).

In experiment [1] the target is Alkaline phosphatase, placental type (Homo sapiens, UniProt P05187). Nature of the experiment: PLAP enzyme inhibitors, confirmation, biochemical, luminescence (AID 1512). Type of experiment: functional.
For experiment [2], the target named is Glyceraldehyde-3-phosphate dehydrogenase (Homo sapiens, UniProt P04406).
Experiment [3] deals with T1, Heat shock factor protein 1 (Mus musculus, UniProt P38532).
T1 sequence (P38532 whole entry): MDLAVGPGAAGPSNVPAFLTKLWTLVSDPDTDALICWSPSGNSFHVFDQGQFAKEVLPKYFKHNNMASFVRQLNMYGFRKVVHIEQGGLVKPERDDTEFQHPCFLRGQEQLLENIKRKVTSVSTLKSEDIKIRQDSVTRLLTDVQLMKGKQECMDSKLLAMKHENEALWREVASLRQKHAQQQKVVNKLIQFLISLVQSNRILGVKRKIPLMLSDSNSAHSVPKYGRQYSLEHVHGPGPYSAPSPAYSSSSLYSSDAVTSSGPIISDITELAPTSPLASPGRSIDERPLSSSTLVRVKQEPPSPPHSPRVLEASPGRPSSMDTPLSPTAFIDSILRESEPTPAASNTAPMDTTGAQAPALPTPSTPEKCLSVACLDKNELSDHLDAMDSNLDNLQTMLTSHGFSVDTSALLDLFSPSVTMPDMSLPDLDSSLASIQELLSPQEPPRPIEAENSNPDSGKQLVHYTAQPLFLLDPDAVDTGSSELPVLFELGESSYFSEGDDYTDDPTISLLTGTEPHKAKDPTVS
Nature of the experiment: HSF1 potentiators in luciferase reporter cells, confirmation, cell-based, NIH3T3, luminescence, dose retest (AID 435004).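 Also: stress induced by proteasome inhibitor MG132 added 30 min after compound; luciferase reporter driven by HSF1 response element in NIH3T3 cells; actives raise luminescence as potentiators of the MG132 stress response.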 Type of experiment: functional. (In a reporter assay the amount or activity of a reporter protein is the signal.)

The target of experiment [4] is G-protein coupled receptor 55 (Homo sapiens, UniProt Q9Y2T6). Nature of the experiment: GPR55 antagonists blocking LPI-driven arrestin recruitment, primary screen, imaging, U2OS, beta-arrestin-GFP, LPI agonist (AID 2013).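 Also: antagonist potency measured as reduced agonist-driven arrestin aggregation.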 Type of experiment: functional. In general terms: Activated receptors often draw arrestin, which recruitment assays turn into a signal.
The next experiment addresses T2, Protein RecA (Mycobacterium tuberculosis, UniProt P9WHJ3).
T2 sequence (P9WHJ3 whole entry): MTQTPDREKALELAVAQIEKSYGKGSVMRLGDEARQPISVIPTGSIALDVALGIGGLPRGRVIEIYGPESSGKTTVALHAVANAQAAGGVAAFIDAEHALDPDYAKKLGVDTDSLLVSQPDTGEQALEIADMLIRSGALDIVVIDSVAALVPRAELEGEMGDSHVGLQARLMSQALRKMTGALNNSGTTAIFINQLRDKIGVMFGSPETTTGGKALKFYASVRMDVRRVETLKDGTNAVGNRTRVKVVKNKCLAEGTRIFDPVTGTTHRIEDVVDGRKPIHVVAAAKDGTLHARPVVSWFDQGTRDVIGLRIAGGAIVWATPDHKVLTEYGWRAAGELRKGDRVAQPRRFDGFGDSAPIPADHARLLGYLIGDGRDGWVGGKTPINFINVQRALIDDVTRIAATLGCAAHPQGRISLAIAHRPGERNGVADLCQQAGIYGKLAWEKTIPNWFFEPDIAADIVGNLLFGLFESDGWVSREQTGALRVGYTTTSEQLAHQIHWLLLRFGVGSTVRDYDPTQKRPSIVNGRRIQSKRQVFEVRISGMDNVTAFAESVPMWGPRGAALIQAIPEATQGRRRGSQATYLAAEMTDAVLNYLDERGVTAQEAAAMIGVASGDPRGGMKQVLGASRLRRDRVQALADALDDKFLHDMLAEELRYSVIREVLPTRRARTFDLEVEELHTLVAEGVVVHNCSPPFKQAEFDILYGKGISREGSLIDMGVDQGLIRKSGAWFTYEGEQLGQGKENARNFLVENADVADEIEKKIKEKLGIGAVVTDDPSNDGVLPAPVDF
Nature of the experiment: Fluorescence Cell-Free Homogeneous Dose Retest to Identify Inhibitors of RecA-Intein Splicing Activity. [Related pubchem assays (depositor defined):AID2097, AID2223, AID489010, AID492950]. Type of experiment: functional.

For experiment [5], the target named is T3, Replicative DNA helicase DnaB (Mycobacterium tuberculosis, UniProt P9WMR3).
T3 sequence (P9WMR3 whole entry): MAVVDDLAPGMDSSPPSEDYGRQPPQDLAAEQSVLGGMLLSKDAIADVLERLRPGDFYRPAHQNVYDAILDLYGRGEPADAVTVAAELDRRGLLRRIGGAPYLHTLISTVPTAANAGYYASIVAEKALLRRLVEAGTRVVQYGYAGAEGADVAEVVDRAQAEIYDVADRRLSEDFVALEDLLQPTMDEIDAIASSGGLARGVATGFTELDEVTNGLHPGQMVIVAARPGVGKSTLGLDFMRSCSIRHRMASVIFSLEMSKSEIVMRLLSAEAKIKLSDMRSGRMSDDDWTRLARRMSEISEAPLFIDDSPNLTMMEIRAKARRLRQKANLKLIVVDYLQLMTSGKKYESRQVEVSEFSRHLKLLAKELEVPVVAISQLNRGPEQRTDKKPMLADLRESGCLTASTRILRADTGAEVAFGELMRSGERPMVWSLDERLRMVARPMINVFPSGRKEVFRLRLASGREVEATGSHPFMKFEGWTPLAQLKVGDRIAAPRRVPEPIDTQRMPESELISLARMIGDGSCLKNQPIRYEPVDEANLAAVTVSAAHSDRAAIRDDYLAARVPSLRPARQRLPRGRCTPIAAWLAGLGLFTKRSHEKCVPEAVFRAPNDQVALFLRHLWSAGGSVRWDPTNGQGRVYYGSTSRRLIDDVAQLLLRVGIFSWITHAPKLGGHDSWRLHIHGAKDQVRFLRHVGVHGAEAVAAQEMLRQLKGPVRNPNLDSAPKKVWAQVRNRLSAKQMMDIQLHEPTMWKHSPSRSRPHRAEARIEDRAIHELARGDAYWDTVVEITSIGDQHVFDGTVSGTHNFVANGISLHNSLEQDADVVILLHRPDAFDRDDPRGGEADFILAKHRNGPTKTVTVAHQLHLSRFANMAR
Nature of the experiment: DnaB intein splicing inhibitors, dose response, biochemical, cell-free fluorescence (AID 449749). Type of experiment: functional.

Another experiment has as its system HEK293. Nature of the experiment: inhibitors of LMP1-driven NF-kB reporter, dose response, cell-based, HEK293, luciferase, cherry-pick (AID 588343). Type of experiment: functional. As to conditions: Homo sapiens.
In a further experiment the target is T4, Caspase-3 (Homo sapiens, UniProt P42574).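 Also: Dose-response selectivity test against caspase-3 for candidate inhibitors of sentrin-specific proteases (SENPs).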
T4 sequence (P42574 whole entry): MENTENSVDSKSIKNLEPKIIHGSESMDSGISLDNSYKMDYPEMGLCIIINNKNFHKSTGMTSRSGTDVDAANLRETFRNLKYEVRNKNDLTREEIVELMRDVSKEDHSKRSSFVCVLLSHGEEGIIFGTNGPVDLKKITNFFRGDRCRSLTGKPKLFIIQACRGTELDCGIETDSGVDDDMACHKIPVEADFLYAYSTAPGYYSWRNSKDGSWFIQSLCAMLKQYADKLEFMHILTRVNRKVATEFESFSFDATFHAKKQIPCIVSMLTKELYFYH
Type of experiment: functional.

The next experiment is described as follows: cells. Type of experiment: functional, cell-based.
The target in experiment [6] is Nuclear receptor subfamily 0 group B member 1 (Homo sapiens, UniProt P51843). Type of experiment: functional, cell-based.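 Also: HEK293T cells transfected with SF-1 and DAX-1 plus StAR promoter luciferase reporter.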
The target of experiment [7] is T5, Sentrin-specific protease 8 (Homo sapiens, UniProt Q96LD8).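 Also: luminescence read-out of SENP8 inhibition, dose-response confirmation following an ultra-high-throughput screen.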
T5 sequence (Q96LD8 whole entry): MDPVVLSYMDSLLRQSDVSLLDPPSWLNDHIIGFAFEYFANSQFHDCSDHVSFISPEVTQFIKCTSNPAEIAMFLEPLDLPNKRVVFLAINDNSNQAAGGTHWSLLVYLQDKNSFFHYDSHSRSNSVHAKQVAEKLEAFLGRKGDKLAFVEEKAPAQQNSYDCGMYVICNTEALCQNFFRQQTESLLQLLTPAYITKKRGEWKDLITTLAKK
Type of experiment: functional.

Experiment [8] deals with T6, Sentrin-specific protease 7 (Homo sapiens, UniProt Q9BQF6).
T6 sequence (Q9BQF6 whole entry): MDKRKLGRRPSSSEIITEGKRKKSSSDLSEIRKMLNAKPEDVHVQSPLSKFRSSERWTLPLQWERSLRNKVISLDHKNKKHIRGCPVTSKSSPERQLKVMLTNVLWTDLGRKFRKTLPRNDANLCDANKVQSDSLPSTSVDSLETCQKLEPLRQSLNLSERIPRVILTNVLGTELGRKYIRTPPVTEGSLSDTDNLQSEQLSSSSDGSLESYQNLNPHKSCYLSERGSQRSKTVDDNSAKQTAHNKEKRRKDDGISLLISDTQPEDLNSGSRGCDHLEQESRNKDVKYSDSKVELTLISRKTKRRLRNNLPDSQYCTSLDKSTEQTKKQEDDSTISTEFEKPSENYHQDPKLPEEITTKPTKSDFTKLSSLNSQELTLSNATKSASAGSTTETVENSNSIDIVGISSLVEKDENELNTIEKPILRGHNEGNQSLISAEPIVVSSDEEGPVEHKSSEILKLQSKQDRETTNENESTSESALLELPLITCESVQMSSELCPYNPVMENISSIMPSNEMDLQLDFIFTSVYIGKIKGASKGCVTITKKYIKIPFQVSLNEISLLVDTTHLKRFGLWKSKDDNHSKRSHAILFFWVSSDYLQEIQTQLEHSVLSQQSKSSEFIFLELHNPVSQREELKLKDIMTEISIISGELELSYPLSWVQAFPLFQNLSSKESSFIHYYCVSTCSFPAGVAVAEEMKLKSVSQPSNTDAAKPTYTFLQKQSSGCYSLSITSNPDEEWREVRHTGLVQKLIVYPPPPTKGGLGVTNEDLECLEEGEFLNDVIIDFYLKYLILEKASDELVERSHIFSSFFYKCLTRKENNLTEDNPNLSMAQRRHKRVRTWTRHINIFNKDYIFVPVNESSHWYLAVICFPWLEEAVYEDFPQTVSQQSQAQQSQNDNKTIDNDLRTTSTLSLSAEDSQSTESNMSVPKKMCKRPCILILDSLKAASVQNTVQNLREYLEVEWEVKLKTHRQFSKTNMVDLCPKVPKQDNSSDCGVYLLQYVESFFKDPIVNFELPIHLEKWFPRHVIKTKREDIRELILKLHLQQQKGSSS
Type of experiment: functional.

Experiment [9] has as its target T7, Sentrin-specific protease 6 (Homo sapiens, UniProt Q9GZR1).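 Also: Luminescence-based dose-response confirmatory assay of SENP6 inhibition, following up an ultra-high-throughput screen.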
T7 sequence (Q9GZR1 whole entry): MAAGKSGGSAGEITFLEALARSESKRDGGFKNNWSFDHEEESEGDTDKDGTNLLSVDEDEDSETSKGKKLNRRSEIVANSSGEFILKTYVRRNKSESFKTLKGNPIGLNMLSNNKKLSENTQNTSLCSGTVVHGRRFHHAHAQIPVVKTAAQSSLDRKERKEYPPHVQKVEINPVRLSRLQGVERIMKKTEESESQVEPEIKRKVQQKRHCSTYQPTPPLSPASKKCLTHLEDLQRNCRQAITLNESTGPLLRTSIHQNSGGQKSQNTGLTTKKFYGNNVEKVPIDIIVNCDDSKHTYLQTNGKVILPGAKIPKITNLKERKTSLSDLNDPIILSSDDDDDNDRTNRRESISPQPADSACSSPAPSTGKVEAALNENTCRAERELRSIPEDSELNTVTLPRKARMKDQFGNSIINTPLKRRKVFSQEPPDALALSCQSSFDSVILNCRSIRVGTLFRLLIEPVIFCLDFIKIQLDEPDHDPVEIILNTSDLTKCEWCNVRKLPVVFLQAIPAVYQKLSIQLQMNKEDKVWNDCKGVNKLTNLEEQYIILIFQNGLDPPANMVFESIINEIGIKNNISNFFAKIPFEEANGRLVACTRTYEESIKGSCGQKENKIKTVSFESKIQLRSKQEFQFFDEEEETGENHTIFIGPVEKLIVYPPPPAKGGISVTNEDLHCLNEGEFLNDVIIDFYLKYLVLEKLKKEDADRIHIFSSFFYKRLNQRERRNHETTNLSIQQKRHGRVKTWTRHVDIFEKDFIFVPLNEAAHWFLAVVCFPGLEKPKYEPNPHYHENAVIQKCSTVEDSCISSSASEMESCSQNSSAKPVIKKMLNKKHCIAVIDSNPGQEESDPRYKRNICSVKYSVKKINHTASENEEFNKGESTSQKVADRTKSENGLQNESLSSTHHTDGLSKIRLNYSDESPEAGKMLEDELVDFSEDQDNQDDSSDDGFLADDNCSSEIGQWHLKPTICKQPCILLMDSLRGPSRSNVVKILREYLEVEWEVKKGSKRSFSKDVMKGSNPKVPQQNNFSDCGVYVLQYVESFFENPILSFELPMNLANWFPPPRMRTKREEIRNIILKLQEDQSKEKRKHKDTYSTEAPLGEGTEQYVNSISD
Type of experiment: functional.

Chain of G-protein coupled receptor 55 (Q9Y2T6 whole entry): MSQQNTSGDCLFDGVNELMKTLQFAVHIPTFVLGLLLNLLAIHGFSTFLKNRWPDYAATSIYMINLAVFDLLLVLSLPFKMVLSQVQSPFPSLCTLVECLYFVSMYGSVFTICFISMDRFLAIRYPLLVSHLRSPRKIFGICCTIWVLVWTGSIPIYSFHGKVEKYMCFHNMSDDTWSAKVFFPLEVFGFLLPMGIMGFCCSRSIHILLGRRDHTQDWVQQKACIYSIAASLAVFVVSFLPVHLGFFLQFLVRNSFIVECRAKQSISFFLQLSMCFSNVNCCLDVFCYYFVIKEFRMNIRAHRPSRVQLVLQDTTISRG
Chain of Alkaline phosphatase, placental type (P05187 whole entry): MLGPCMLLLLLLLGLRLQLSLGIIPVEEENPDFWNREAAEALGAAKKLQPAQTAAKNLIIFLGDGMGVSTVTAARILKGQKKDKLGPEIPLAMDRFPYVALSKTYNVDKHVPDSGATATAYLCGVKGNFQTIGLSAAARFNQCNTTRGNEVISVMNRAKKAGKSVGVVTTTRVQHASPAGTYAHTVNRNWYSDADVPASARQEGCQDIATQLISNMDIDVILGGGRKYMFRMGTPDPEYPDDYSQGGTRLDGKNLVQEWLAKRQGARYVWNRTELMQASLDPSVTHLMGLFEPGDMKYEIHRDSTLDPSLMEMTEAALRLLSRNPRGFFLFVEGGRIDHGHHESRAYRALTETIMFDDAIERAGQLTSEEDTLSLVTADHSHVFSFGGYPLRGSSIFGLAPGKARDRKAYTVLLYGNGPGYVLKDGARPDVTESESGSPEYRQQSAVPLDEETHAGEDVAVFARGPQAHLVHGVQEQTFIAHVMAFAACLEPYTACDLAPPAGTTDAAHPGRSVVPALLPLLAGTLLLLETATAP
Chain of Nuclear receptor subfamily 0 group B member 1 (P51843 whole entry): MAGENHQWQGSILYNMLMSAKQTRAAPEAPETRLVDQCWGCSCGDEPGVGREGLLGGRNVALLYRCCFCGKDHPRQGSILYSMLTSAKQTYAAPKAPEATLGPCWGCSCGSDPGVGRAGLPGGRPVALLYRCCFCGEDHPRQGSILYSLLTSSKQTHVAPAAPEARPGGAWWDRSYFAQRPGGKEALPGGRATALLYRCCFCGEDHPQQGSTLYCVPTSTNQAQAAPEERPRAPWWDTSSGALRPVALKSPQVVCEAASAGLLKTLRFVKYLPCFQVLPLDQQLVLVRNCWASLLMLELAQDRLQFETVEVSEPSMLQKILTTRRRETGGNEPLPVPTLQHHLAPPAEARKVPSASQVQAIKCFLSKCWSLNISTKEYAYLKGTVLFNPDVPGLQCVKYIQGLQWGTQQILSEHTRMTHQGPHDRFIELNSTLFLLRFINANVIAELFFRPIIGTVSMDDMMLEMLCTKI
Chain of Glyceraldehyde-3-phosphate dehydrogenase (P04406 whole entry): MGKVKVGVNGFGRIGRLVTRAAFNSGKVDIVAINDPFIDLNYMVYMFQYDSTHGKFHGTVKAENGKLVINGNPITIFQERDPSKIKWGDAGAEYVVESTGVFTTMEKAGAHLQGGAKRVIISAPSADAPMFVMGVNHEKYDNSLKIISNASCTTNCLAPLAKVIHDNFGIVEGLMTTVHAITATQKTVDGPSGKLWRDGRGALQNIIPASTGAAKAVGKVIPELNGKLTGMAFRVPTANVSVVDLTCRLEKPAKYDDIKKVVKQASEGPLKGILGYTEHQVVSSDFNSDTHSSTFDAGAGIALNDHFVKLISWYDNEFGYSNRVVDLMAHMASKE

In the case of `O=C(c1cc(-c2ccc(Cl)cc2Cl)n[nH]1)N1CCCCCC1`, the IC50 in [1] was > 100 µM (inactive); in experiment [2] it was > 100 µM (not active).

Turning to `Clc1ncnc2scc(C3COc4ccccc4O3)c12` (stereo not drawn), the EC50 in experiment [3] was 21.4 µM (active); on Protein RecA it was 3.97 µM (active). Further, the IC50 in experiment [4] is 3.38 µM (active). For the same compound, the half-maximal activity concentration (AC50) in experiment [5] is 7.16 µM (active).

In the case of `Cc1ccn2c(c1)nc(=S)n2C(=O)c1ccccc1`, in the experiment with HEK293, the AC50 is 0.814 µM (active). Moreover, the IC50 on Caspase-3 is 46.5 µM (active); in “cells” it was > 67.5 µM (inactive); in experiment [6] it was > 0.0926 µM (active); in experiment [7], 94.9 µM (active); in experiment [8], 4.09 µM (active); in [9], 72.3 µM (active).
